Reference: patent US11660286B2, “Methods and compositions comprising a nitrite-reductase promoter for treatment of medical disorders and preservation of blood products” (EpicentRx, Inc., priority 2011, dated 2023)
Like-named read-outs stand apart in the source and are kept apart here.

Tests used:
hemorrhagic shock [1] = type: in vivo, Golden Syrian Hamsters
Experimental: (§1) Experiments were performed in 55-65 g male Golden Syrian Hamsters (Charles River Laboratories, Boston, Mass.) fitted with a dorsal skinfold window chamber. Animal handling and care followed the NIH Guide for the Care and Use of Laboratory Animals. The hamster window chamber model is widely used for microvascular studies in the unanesthetized state. The complete surgical technique is described in detail elsewhere, such as in Colantuoni et al. in Am J Physiol 1984; 246:H508-17. Three to four days after the initial surgery, the microvasculature was examined and only animals passing an established systemic and microcirculatory inclusion criteria, as previously described (e.g., in Cabrales P. Low dose nitrite enhances perfusion after fluid resuscitation from hemorrhagic shock. Resuscitation 2009; 80: 1431-6), were entered into the study.
Acute hemorrhage was induced by withdrawing 50% of estimated total blood volume (BV) via the carotid artery catheter within 5 min. Total BV was estimated as 7% of body weight. […]
Conscious animal was placed in a restraining tube with a longitudinal slit from which the window chamber protruded, then fixed to the microscopic stage for transillumination with the intravital microscope (BX51WI, Olympus, New Hyde Park, N.Y.). […] Systemic (MAP, HR, Het, Hb, PaO2, PaCO2, pH, lactate, plasma nitrite, and metHb) and microvascular (artciorlar and venular diameters, blood flow, and FCD) parameters were analyzed, as previously described (e.g., in P. Nachuraju et al. in Resuscitation 2011; 82:607-613; Cabrales P. in Resuscitation 2009; 80:1431-6; Cabrales et al. in Shock 2007; 27:380-9; and Cabrales et al. in Am J Physiol 2004; 287:H363-73) before hemorrhage (baseline), after hemorrhage (shock), and up to 90 min after volume replacement (resuscitation). Tissue viability was measured at 8 hours following hemorrhage as described previously (e.g., in Yang et al. In Invest Ophthalmol Vis Sci 2003; 44:1993-1997; and Cabrales et al. in Antioxid Redox Signal 2007; 9:375-84). […]

hemorrhagic shock [2] = details: 50 μM nitrite, previous study, cited from earlier work
hemorrhagic shock [3] = experiment: Resuscitation from hemorrhagic shock, hamster window chamber model: systemic parameters; details: for BP / HR / Hb / Hct / Lactate / pCO2 / pO2 / pH: mean ± SD; for pH: arterial
Experimental: as §1
(§2) Acute hemorrhage was induced by withdrawing 50% of estimated total blood volume (BV) via the carotid artery catheter within 5 min. Total BV was estimated as 7% of body weight. One hour after hemorrhage induction, animals received 25% of BY of resuscitation (200 μl/min) via the jugular vein catheter, implemented with the volume resuscitation strategy defined by the group name, according to the scheme described before.
(§3) Fresh blood was collected from a donor, adult male Golden Syrian Hamsters (60-80 g). Briefly, hamster donors were anaesthetized, left carotid artery catheter was implanted, and blood was allowed to flow into heparinized tubes (sodium heparin 15 IU/mL). RBCs and plasma were separated by centrifugation (2700 rpm, 7 min). Buffy coat was discarded. RRx-001 treated cells were prepared by incubation of 1 mL of packed cells with 2 mg of RRx-001 for 30 minutes at 4° C., cells were rinsed 2× by centrifugation at 3,000 rpm with phosphate buffer saline (PBS) solution with 0.5% albumin (pre-filtered 0.22 μm, pH 7.4). After the final wash, red blood cells (RBCs) were adjusted to a 30% Het with fresh plasma.
(§4) For the groups that received “nitrite,” 10 μM (in saline 100 μL) of sodium nitrite in saline was infused via the carotid artery catheter 10 minutes after resuscitation for the groups that received nitrite. An equal volume of saline was given to the other groups. To address effects of instrumentation and observation, an additional Sham group was included.
(§5) Conscious animal was placed in a restraining tube with a longitudinal slit from which the window chamber protruded, then fixed to the microscopic stage for transillumination with the intravital microscope (BX51WI, Olympus, New Hyde Park, N.Y.). Animals were given 20 min to adjust to the tube environment before any measurements were made. The tissue image was projected onto a charge-coupled device camera (4815, COHU, San Diego, Calif.) connected to a videocassette recorder and viewed on a monitor. Measurements were carried out using a 40× (LUMPFL-WIR, numerical aperture 0.8, Olympus) water immersion objective. Systemic (MAP, HR, Het, Hb, PaO2, PaCO2, pH, lactate, plasma nitrite, and metHb) and microvascular (artciorlar and venular diameters, blood flow, and FCD) parameters were analyzed, as previously described (e.g., in P. Nachuraju et al. in Resuscitation 2011; 82:607-613; Cabrales P. in Resuscitation 2009; 80:1431-6; Cabrales et al. in Shock 2007; 27:380-9; and Cabrales et al. in Am J Physiol 2004; 287:H363-73) before hemorrhage (baseline), after hemorrhage (shock), and up to 90 min after volume replacement (resuscitation). Tissue viability was measured at 8 hours following hemorrhage as described previously (e.g., in Yang et al. In Invest Ophthalmol Vis Sci 2003; 44:1993-1997; and Cabrales et al. in Antioxid Redox Signal 2007; 9:375-84).
(§6) Table and figure results are presented as mean±SD.

hemorrhagic shock [4] = experiment: Resuscitation from hemorrhagic shock, hamster window chamber model: microvascular measurements; type: in vivo, Golden Syrian Hamsters; details: for functional capillary density (FCD), baseline average and standard deviation: before hemorrhage (FIG. 11)
Experimental: as §1, §2, §3, §4, §5, §6

blood sample = experiment: Nitric oxide production in a sample of blood with sodium nitrite (Tonometer, chemiluminescent NO analysis); type: cell-based; details: anaerobic conditions (N2 atmosphere), 30 min, 37° C., compared to without ABDNAZ or with ABDNAZ under air
Experimental: The ability of ABDNAZ to increase nitric oxide production in a sample of blood under aerobic conditions and anaerobic conditions was evaluated.
A 0.5 mL aliquot of blood was placed in a tonometer. ABDNAZ (5 μL of a 300 mM solution of ABDNAZ in dimethylsulfoxide) was optionally added to the blood sample in the Tonometer. Sodium nitrite was added to the blood sample to achieve a sodium nitrite concentration of 167 mM. Gas (either air or N2) was passed through the Tonometer at a flow rate of 150 mL/min. Gas exiting the Tonometer was collected in three-minute intervals for a period of thirty minutes. The amount of nitric oxide in each of the collected fractions was measured by a chemiluminescent reaction with ozone in a Sievers Nitric Oxide Analyzer. The amount of nitric oxide produced from the blood sample was expressed per mole of hemoglobin present in the blood sample. All experiments were performed at 37° C.
The amount of hemoglobin (Hb) and hematocrit (Het) in the blood sample was determined using an Advia analyzer.

[5] = 60 minutes following resuscitation
[6] = 90 minutes following resuscitation
[7] = Shock (50 min), after hemorrhage, before resuscitation
[8] = Shock (50 min), before resuscitation
[9] = 8 hours following resuscitation, cells in 40 fields

## O=NO [Nitrite, sodium nitrite]
Hemorrhagic shock [1]; hamster, in vivo
  number of necrotic cells compared to the blood group: significantly reduced
Hemorrhagic shock [2]; [5]
  % metHb: 5.8±1.8%
  Blood pressure compared to 0 μM group (control group): significantly decreased
Hemorrhagic shock [2]; [6]
  % metHb: 3.1±1.3%
Hemorrhagic shock [3]; Baseline (before hemorrhage)
  BP: 104.3 ± 9.0 mmHg
  HR: 428 ± 13 bpm
  Hb: 15.2 ± 0.3 g/dL
  Hct: 49.8 ± 0.8%
  Lactate: 1.30 ± 0.13 mmol/L
  pCO2: 52.9 ± 1.2 mmHg
  pO2: 60.5 ± 1.0 mmHg
  pH: 7.34 ± 0.02
Hemorrhagic shock [3]; Resuscitation (30 min)
  BP: 91.3 ± 6.9 mmHg
  HR: 438 ± 21 bpm
Hemorrhagic shock [3]; Resuscitation (60 min)
  BP: 96.3 ± 7.5 mmHg
  HR: 447 ± 21 bpm
  Hb: 9.5 ± 0.2 g/dL
  Hct: 31.0 ± 0.7%
  Lactate: 1.95 ± 0.11 mmol/L
  pCO2: 48.3 ± 2.2 mmHg
  pO2: 76.0 ± 2.9 mmHg
  pH: 7.38 ± 0.02
Hemorrhagic shock [3]; Resuscitation (90 min)
  BP: 94.7 ± 6.5 mmHg
  HR: 459 ± 14 bpm
  Hb: 9.6 ± 0.1 g/dL
  Hct: 31.5 ± 0.4%
  Lactate: 1.71 ± 0.20 mmol/L
  pCO2: 45.0 ± 2.4 mmHg
  pO2: 65.2 ± 3.0 mmHg
  pH: 7.36 ± 0.02
Hemorrhagic shock [3]; [7]
  BP: 46.1 ± 3.6 mmHg
  HR: 455 ± 21 bpm
  Hb: 8.9 ± 0.1 g/dL
  Hct: 29.2 ± 0.5%
Hemorrhagic shock [3]; [8]
  Lactate: 4.52 ± 0.58 mmol/L
  pCO2: 38.9 ± 1.3 mmHg
  pO2: 93.1 ± 2.8 mmHg
  pH: 7.30 ± 0.01
Hemorrhagic shock [3]; hamster, in vivo
  HR compared to the blood group: significantly increased
  MAP compared to the blood group: significantly decreased
  decreases in lactate levels compared to the blood group: did not reach significance
  pH compared to the blood group: significantly increased
  pO2 levels compared to the blood group: significantly increased
Hemorrhagic shock [4]
  functional capillary density (FCD), baseline average and standard deviation: 107±12
Hemorrhagic shock [4]; hamster, in vivo
  functional capillary density (FCD) compared to the blood group: not significantly different

## O=C(CBr)N1CC([N+](=O)[O-])([N+](=O)[O-])C1 [RRx-001]
Hemorrhagic shock [1]; [9]
  number of apoptotic cells compared to the blood group: significantly (P<0.01) less
  number of necrotic cells compared to the blood group: significantly (P<0.01) less
Blood sample
  amount of nitric oxide produced by the blood sample: significant increase
Hemorrhagic shock [3]; 60 and 90 minutes post fluid resuscitation (FIG. 9), normal about 1% of total Hb
  metHb levels: normal
Hemorrhagic shock [3]; 30 minutes following resuscitation
  MAP compared to the blood group: only decreased at 30 minutes
Hemorrhagic shock [3]; 60 minutes following resuscitation, RRx-001 treated blood
  metHb levels: 1.4±0.1%
Hemorrhagic shock [3]; 60 minutes post resuscitation
  pH compared to the blood group: significantly increased
Hemorrhagic shock [3]; 60 minutes, comparator not stated
  blood pressure (MAP) after resuscitation from shock: significantly decreased
Hemorrhagic shock [3]; 90 minutes following resuscitation, RRx-001 treated blood
  metHb levels: 1.2±0.1%
Hemorrhagic shock [3]; 90 minutes post resuscitation
  pO2 levels compared to the blood group: significantly increased
Hemorrhagic shock [3]; Baseline (before hemorrhage)
  BP: 106.3 ± 8.7 mmHg
  HR: 409 ± 21 bpm
  Hb: 15.1 ± 0.3 g/dL
  Hct: 49.7 ± 1.0%
  Lactate: 1.39 ± 0.20 mmol/L
  pCO2: 54.2 ± 1.8 mmHg
  pO2: 59.9 ± 2.5 mmHg
  pH: 7.32 ± 0.01
Hemorrhagic shock [3]; RRx-001 treated blood, current study
  blood pressure following resuscitation: maintained blood pressure
Hemorrhagic shock [3]; Resuscitation (30 min)
  BP: 92.5 ± 6.7 mmHg
  HR: 436 ± 12 bpm
Hemorrhagic shock [3]; Resuscitation (60 min)
  BP: 98.5 ± 7.6 mmHg
  HR: 444 ± 10 bpm
  Hb: 9.5 ± 0.2 g/dL
  Hct: 31.1 ± 0.6%
  Lactate: 1.93 ± 0.23 mmol/L
  pCO2: 48.0 ± 3.1 mmHg
  pO2: 70.9 ± 3.4 mmHg
  pH: 7.39 ± 0.01
Hemorrhagic shock [3]; Resuscitation (90 min)
  BP: 106.3 ± 9.0 mmHg
  HR: 453 ± 17 bpm
  Hb: 9.5 ± 0.1 g/dL
  Hct: 31.2 ± 0.6%
  Lactate: 1.63 ± 0.23 mmol/L
  pCO2: 49.0 ± 2.2 mmHg
  pO2: 68.7 ± 2.9 mmHg
  pH: 7.36 ± 0.01
Hemorrhagic shock [3]; [7]
  BP: 46.3 ± 4.0 mmHg
  HR: 422.5 ± 25 bpm
  Hb: 8.9 ± 0.3 g/dL
  Hct: 29.0 ± 0.8%
Hemorrhagic shock [3]; [8]
  Lactate: 4.16 ± 0.39 mmol/L
  pCO2: 39.3 ± 1.2 mmHg
  pO2: 94.9 ± 5.1 mmHg
  pH: 7.28 ± 0.02
Hemorrhagic shock [3]; following resuscitation
  HR compared to the blood group: significantly increased
  pCO2 levels compared to the blood group: not significantly different
Hemorrhagic shock [3]; post-resuscitation
  decreases in lactate levels compared to the blood group: did not reach significance
Hemorrhagic shock [4]; [5]
  blood flow compared to the blood group: significantly (P<0.001) increased
Hemorrhagic shock [4]; [6]
  blood flow compared to the blood group: significantly (P<0.001) increased
Hemorrhagic shock [4]; 90 minutes post resuscitation
  functional capillary density (FCD) compared to the blood group: significant (P<0.05 and P<0.01, respectively) increases
Hemorrhagic shock [4]
  functional capillary density (FCD), baseline average and standard deviation: 112±9
